Values after ≈ are worked out from the molar mass of the structure shown. Values joined by “and” are separate entries in the source; they are usually repeats but may differ in a detail not shown here. Equal values may be shown once. Read-outs that look alike come from different tables or passages of the source.
Experiments:
Type in all cases: physicochemical
[1] = pKa via photometric titration (Roche internal data); conditions: measured via photometric titration; basic model compounds
[2] = Drug solubility in water (aqueous solubility); conditions: thermodynamic from solid
[3] = Equilibrium solubility in EPO-solutions, 96-well SORESOS assay; conditions: for Adjusted SE in EPO 0.1% / Adjusted SE in EPO 0.5% / Adjusted SE in EPO 1.0% / Adjusted SE in EPO 2.0% / Adjusted SE in EPO 3.0% / Adjusted SE in EPO 4.0% / Adjusted SE in EPO 5.0%: vs adjusted solubility in water at pH 6.0; for Non-adjusted SE in EPO 0.1% (in brackets) / Non-adjusted SE in EPO 0.5% (in brackets) / Non-adjusted SE in EPO 1.0% (in brackets) / Non-adjusted SE in EPO 3.0% (in brackets) / Non-adjusted SE in EPO 4.0% (in brackets) / Non-adjusted SE in EPO 5.0% (in brackets) / Non-adjusted SE in EPO 2.0% (in brackets): vs measured solubility in water; for course of solubility with polymer concentration: EPO 0.1-5%
Experimental: Polymer solutions were prepared by dissolving EPO (0.1%, 0.5%, 1%, 2%, 3%, 4%, 5% (w/w)) in deionized water and adjusting all solutions to pH 6.0 by hydrochloric acid and sodium hydroxide at 25° C. Solutions were checked carefully for absence of particles.
(§1) Solubility of compounds in EPO-solutions was determined by using a 96-well assay that was introduced to measure equilibrium solubility in parallel to a solid state analysis of the residual solid (SORESOS)^21 as described before.^22 In brief, APIs were dispensed using the powder-picking-method^23 in a 96-well flat bottom plate (Corning Inc., Durham, USA). Mixtures were agitated by head-over-head rotation for 48 h at room temperature after addition of stir bars and polymer solutions (150 μl). After mixing, the suspensions were carefully transferred into 96-well filter plates and the liquid and solid phase were separated by centrifugation. […] An isocratic flow (composition of the mobile phase is listed in Table 2) was applied for 0.3 min at a flow rate of 0.75 mL/min. […] Solid state analysis of residual solid was performed by X-ray powder diffraction (XRPD) using a STOE Stadi P Combi diffractometer with a primary Ge-monochromator (Cu Kα radiation), imaging plate position sensitive detector (IP-PSD), and a 96-well sample stage as described before.^21 The IP-PSD allowed simultaneous recording of the diffraction pattern on both sides of the primary beam which were summed up by the software STOE WinXPOW to reduce effects related to poor crystal orientation statistics. Samples were analyzed directly in the 96-well filter plate with an exposure time of 5 min per well.
as §1, with “After addition of stir bars and polymer solutions (150 μl), mixtures” for “Mixtures”, “temperature.” for “temperature after addition of stir bars and polymer solutions (150 μl).”, “7)” for “2)”

[4] = pH of drug suspensions in water and in EPO-solutions; conditions: EPO 0.5%, 2%, and 5%; solutions started at pH 6.0
Experimental: All excipient solutions were adjusted to pH 6.0 before incubation and following equilibration, the residual solid was analyzed by means of XRPD. […] This extrapolation method was based on the Henderson-Hasselbalch equation and it is generally reliable when the experimental solubility value is within one pH unit difference.^25

[5] = 24 h incubation, pH not adjusted, read-out: Solubility in water (standard deviation, n = 3)
[6] = extrapolated to pH 6.0 by Henderson-Hasselbalch equation, read-out: Adjusted solubility at pH 6.0

SMILES | pKa [1] | solubility at 24 h [2, 5] | solubility at 24 h [2, 6] | Adjusted SE in EPO 0.1% [3] | Non-adjusted SE in EPO 0.1% (in brackets) [3] | course of solubility with polymer concentration ([3]; 48 h, room temperature) | Adjusted SE in EPO 0.5% [3] | Non-adjusted SE in EPO 0.5% (in brackets) [3] | Adjusted SE in EPO 1.0% [3] | Non-adjusted SE in EPO 1.0% (in brackets) [3] | Adjusted SE in EPO 2.0% [3] | Adjusted SE in EPO 3.0% [3] | Non-adjusted SE in EPO 3.0% (in brackets) [3] | Adjusted SE in EPO 4.0% [3] | Non-adjusted SE in EPO 4.0% (in brackets) [3] | Adjusted SE in EPO 5.0% [3] | Non-adjusted SE in EPO 5.0% (in brackets) [3] | Non-adjusted SE in EPO 2.0% (in brackets) [3] | further results
OC(c1cc(C(F)(F)F)nc2c(C(F)(F)F)cccc12)C1CCCCN1 (stereo not drawn) [MFQ, mefloquine] | 9.2 | 63 µg/mL (≈ 167 µM) | 2450 µg/mL (≈ 6470 µM) | 0.2 | 7.2 | increase of solubility with polymer concentration up to 5% EPO | 1.0 | 37.3 | 1.5 | 58.3 | 2.4 | 3.6 | 141.5 | 4.4 | 172.5 | 4.8 | 186.2 | – | solubility at 48 h ([3]; aqueous EPO polymer solution, pH 6, aqueous with cosolvent or surfactant or cyclodextrin, thermodynamic from solid, EPO 5%, 48 h, room temperature): 12000 µg/mL (≈ 31700 µM); pH after 48 h in EPO [4]: 6.3 and 6.4
COc1ccccc1OCCNCC(O)COc1cccc2[nH]c3ccccc3c12 (stereo not drawn) [CVD, carvedilol] | 8.1 | – | 71 µg/mL (≈ 175 µM) | 1.7 | 24.3 | – | 6.7 | 94.9 | 6.9 | – | 10.7 | 11.1 | 157.4 | 10.6 | 150.9 | 11.7 | 165.9 | 152.3 | EPO concentration at which solubility reached a plateau ([3]; 48 h, room temperature): 2 % EPO (w/w)
COC1=CC(=O)C[C@@H](C)[C@]12Oc1c(Cl)c(OC)cc(OC)c1C2=O [GFN, griseofulvin] | – | – | – | – | – | solubility decreased again and finally reached a kind of plateau | – | – | – | – | – | – | – | – | – | – | – | – | EPO concentration of maximum solubility ([3]; 48 h, room temperature): 2 % EPO (w/w)
CC(C)(C)c1ccc(C(O)CCCN2CCC(C(O)(c3ccccc3)c3ccccc3)CC2)cc1 (stereo not drawn) [TFD, terfenadine] | 9.1 | 2 µg/mL (≈ 4.24 µM) | 13 µg/mL (≈ 27.6 µM) | 2.5 | 16.0 | – | 6.6 | 43.2 | 8.3 | 54.0 | 11.7 | 15.3 | 99.3 | 14.6 | 94.8 | 14.0 | 91.2 | 76.2 | EPO concentration at which solubility reached a plateau ([3]; 48 h, room temperature): 2 % EPO (w/w)
CC/C(=C(\c1ccccc1)c1ccc(OCCN(C)C)cc1)c1ccccc1 [TMX, tamoxifen] | 9.7 | – | – | – | – | – | – | – | – | – | – | – | – | – | – | – | – | – | –
C(=C\c1ccccc1)/CN1CCN(C(c2ccccc2)c2ccccc2)CC1 [CNZ, Cinnarizine] | 7.8 | 1 µg/mL (≈ 2.71 µM) | 1 µg/mL (≈ 2.71 µM) | 2.7 (2.7) | 2.7 (2.7) | – | 10.3 (10.3) | 10.3 (10.3) | 15.3 (15.3) | 15.3 (15.3) | 29.3 (29.3) | 37.3 (37.3) | 37.3 (37.3) | 39.0 (39.0) | 39.0 (39.0) | 37.0 (37.0) | 37.0 (37.0) | 29.3 (29.3) | –
O=c1[nH]c2ccccc2n1C1CCN(CCCC(c2ccc(F)cc2)c2ccc(F)cc2)CC1 [PMZ, Pimozide] | 8.6 | 2 µg/mL (≈ 4.33 µM) | 13 µg/mL (≈ 28.2 µM) | 2.0 | 12.8 | increase of solubility with polymer concentration up to 5% EPO | 5.4 | 35.3 | 5.0 | 32.3 | 6.9 | 8.5 | 55.2 | 9.3 | 60.2 | 9.8 | 63.8 | 45.0 | –
CCOC(=O)C1=C(C)NC(C)=C(C(=O)OC)C1c1cccc(Cl)c1Cl (stereo not drawn) [FLP, felodipine] | – | – | – | – | – | increase of solubility with polymer concentration up to 5% EPO | – | – | – | – | – | – | – | – | – | – | – | – | solubility ([2]; neutral model compounds, n = 3): 0.4 µg/mL (≈ 1.04 µM)

Source: patent US11491109B2, “Pharmaceutical compositions for basic or neutral, low molecular weight compounds” (Hoffmann-La Roche Inc., priority 2017, dated 2022)
